pIC50: −log10 of the molar value.
Experiments:
[1] = molecular target: High affinity cGMP-specific 3',5'-cyclic phosphodiesterase 9A (Homo sapiens, UniProt O76083); assay: Inhibition of human recombinant PDE9 expressed in SF9 cells by scintillation proximity assay
[2] = molecular target: Dual specificity calcium/calmodulin-dependent 3',5'-cyclic nucleotide phosphodiesterase 1A (Homo sapiens, UniProt P54750); assay: Inhibition of PDE1a
[3] = molecular target: Dual specificity calcium/calmodulin-dependent 3',5'-cyclic nucleotide phosphodiesterase 1B (Homo sapiens, UniProt Q01064); assay: Inhibition of PDE1b
[4] = molecular target: Dual specificity calcium/calmodulin-dependent 3',5'-cyclic nucleotide phosphodiesterase 1C (Homo sapiens, UniProt Q14123); assay: Inhibition of PDE1c
[5] = test system: Mus musculus; assay: Reduction of glucose level in ob/ob mouse at 100 mg/kg, po administered by subchronic dosing for 4 days relative to control (RVb 406 mg/dl); type: functional; parameters: scale not given: the % may be the effect or the level left
[6] = test system: Mus musculus; assay: Reduction of glucose level in ob/ob mouse at 250 mg/kg, po administered by subchronic dosing for 4 days (RVb 406 mg/dl); type: functional; parameters: scale not given: the % may be the effect or the level left
[7] = test system: Mus musculus; assay: Reduction of glucose level in ob/ob mouse at 500 mg/kg, po administered by subchronic dosing for 4 days (RVb 406 mg/dl); type: functional; parameters: scale not given: the % may be the effect or the level left
[8] = test system: Mus musculus; assay: Reduction of insulin level in ob/ob mouse at 100 mg/kg, po administered by subchronic dosing for 4 days (RVb 23 ng/mL); type: functional; parameters: scale not given: the % may be the effect or the level left
[9] = test system: Mus musculus; assay: Reduction of insulin level in ob/ob mouse at 250 mg/kg, po administered by subchronic dosing for 4 days (RVb 23 ng/mL); type: functional; parameters: scale not given: the % may be the effect or the level left
[10] = test system: Mus musculus; assay: Reduction of insulin level in ob/ob mouse at 500 mg/kg, po administered by subchronic dosing for 4 days (RVb 23 ng/mL); type: functional; parameters: scale not given: the % may be the effect or the level left
[11] = test system: Mus musculus; assay: Reduction of body weight in ob/ob mouse at 100 mg/kg, po administered by subchronic dosing for 4 days (RVb 44 g); type: functional; parameters: scale not given: the % may be the effect or the level left
[12] = test system: Mus musculus; assay: Reduction of body weight in ob/ob mouse at 250 mg/kg, po administered by subchronic dosing for 4 days (RVb 44 g); type: functional; parameters: scale not given: the % may be the effect or the level left
[13] = test system: Mus musculus; assay: Reduction of body weight in ob/ob mouse at 500 mg/kg, po administered by subchronic dosing for 4 days (RVb 44 g); type: functional; parameters: scale not given: the % may be the effect or the level left
[14] = Inhibition of PDE11
[15] = molecular target: 3',5'-cyclic-AMP phosphodiesterase 4B (Homo sapiens, UniProt Q07343); assay: Inhibition of PDE4b
[16] = test system: Mus musculus; assay: Free plasma concentration at terminal bleed in ob/ob mouse at 250 mg/kg, po administered by subchronic dosing for 4 days after 3 hrs of last dose
[17] = test system: Mus musculus; assay: Free plasma concentration at terminal bleed in ob/ob mouse at 500 mg/kg, po administered by subchronic dosing for 4 days after 3 hrs of last dose
[18] = Inhibition of PDE2
[19] = molecular target: cGMP-inhibited 3',5'-cyclic phosphodiesterase 3A (Homo sapiens, UniProt Q14432); assay: Inhibition of PDE3a
[20] = molecular target: cGMP-inhibited 3',5'-cyclic phosphodiesterase 3B (Homo sapiens, UniProt Q13370); assay: Inhibition of PDE3b
[21] = molecular target: 3',5'-cyclic-AMP phosphodiesterase 4A (Homo sapiens, UniProt P27815); assay: Inhibition of PDE4a
[22] = molecular target: 3',5'-cyclic-AMP phosphodiesterase 4C (Homo sapiens, UniProt Q08493); assay: Inhibition of PDE4c
[23] = molecular target: 3',5'-cyclic-AMP phosphodiesterase 4D (Homo sapiens, UniProt Q08499); assay: Inhibition of PDE4d
[24] = molecular target: cGMP-specific 3',5'-cyclic phosphodiesterase (Homo sapiens, UniProt O76074); assay: Inhibition of PDE5
[25] = Inhibition of PDE6
[26] = molecular target: High affinity 3',5'-cyclic-AMP phosphodiesterase 7A (Homo sapiens, UniProt Q13946); assay: Inhibition of PDE7a
[27] = molecular target: 3',5'-cyclic-AMP phosphodiesterase 7B (Homo sapiens, UniProt Q9NP56); assay: Inhibition of PDE7b
[28] = molecular target: High affinity cAMP-specific and IBMX-insensitive 3',5'-cyclic phosphodiesterase 8A (Homo sapiens, UniProt O60658); assay: Inhibition of PDE8a
[29] = molecular target: High affinity cAMP-specific and IBMX-insensitive 3',5'-cyclic phosphodiesterase 8B (Homo sapiens, UniProt O95263); assay: Inhibition of PDE8b
[30] = Inhibition of PDE10
[31] = test system: Mus musculus; assay: Free plasma concentration at terminal bleed in ob/ob mouse at 100 mg/kg, po administered by subchronic dosing for 4 days after 3 hrs of last dose
[32] = Volume of distribution at steady state in rat; settings: in vivo
[33] = Oral bioavailability in rat; settings: in vivo
[34] = in vivo; settings: rat
[35] = Apparent permeability across MDCK cells; settings: dog

Chain of High affinity 3',5'-cyclic-AMP phosphodiesterase 7A (Q13946 whole entry): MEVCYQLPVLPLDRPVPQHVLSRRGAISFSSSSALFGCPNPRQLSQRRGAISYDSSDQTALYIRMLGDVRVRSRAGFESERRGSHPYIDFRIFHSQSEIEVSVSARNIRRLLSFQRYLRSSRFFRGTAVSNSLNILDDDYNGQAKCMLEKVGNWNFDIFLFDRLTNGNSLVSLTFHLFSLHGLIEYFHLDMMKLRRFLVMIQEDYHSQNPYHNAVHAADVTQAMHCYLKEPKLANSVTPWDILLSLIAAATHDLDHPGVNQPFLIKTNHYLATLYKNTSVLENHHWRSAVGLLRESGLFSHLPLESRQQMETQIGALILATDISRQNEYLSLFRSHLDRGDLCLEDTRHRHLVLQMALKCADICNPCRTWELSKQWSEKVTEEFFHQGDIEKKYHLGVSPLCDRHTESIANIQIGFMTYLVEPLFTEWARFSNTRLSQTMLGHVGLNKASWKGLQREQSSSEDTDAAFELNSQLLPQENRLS
Chain of Dual specificity calcium/calmodulin-dependent 3',5'-cyclic nucleotide phosphodiesterase 1B (Q01064 whole entry): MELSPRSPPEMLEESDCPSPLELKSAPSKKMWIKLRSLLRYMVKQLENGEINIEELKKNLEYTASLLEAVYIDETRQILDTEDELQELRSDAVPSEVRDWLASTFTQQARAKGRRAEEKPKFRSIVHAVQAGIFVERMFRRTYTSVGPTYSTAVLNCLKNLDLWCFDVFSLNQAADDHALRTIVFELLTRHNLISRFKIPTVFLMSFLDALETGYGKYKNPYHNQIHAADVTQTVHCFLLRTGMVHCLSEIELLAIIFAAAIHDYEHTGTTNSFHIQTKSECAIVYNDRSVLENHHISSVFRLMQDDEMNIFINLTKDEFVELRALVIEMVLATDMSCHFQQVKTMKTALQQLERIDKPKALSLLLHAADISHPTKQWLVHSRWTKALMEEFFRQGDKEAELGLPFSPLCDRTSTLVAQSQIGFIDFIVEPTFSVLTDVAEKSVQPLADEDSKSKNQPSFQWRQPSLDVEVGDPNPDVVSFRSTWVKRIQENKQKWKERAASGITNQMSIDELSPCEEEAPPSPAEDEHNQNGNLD
Chain of 3',5'-cyclic-AMP phosphodiesterase 7B (Q9NP56 whole entry): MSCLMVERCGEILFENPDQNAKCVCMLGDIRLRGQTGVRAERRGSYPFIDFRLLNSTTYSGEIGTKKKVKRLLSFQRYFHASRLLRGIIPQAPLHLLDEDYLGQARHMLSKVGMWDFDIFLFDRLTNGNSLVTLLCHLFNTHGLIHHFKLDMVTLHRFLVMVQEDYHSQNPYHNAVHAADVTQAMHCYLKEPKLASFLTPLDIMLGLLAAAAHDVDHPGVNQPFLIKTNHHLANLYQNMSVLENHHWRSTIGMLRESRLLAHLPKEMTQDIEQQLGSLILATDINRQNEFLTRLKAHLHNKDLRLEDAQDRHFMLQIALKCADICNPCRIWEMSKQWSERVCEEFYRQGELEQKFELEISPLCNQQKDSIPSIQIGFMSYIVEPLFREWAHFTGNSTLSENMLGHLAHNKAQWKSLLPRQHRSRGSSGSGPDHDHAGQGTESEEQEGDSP
Chain of High affinity cAMP-specific and IBMX-insensitive 3',5'-cyclic phosphodiesterase 8A (O60658 whole entry): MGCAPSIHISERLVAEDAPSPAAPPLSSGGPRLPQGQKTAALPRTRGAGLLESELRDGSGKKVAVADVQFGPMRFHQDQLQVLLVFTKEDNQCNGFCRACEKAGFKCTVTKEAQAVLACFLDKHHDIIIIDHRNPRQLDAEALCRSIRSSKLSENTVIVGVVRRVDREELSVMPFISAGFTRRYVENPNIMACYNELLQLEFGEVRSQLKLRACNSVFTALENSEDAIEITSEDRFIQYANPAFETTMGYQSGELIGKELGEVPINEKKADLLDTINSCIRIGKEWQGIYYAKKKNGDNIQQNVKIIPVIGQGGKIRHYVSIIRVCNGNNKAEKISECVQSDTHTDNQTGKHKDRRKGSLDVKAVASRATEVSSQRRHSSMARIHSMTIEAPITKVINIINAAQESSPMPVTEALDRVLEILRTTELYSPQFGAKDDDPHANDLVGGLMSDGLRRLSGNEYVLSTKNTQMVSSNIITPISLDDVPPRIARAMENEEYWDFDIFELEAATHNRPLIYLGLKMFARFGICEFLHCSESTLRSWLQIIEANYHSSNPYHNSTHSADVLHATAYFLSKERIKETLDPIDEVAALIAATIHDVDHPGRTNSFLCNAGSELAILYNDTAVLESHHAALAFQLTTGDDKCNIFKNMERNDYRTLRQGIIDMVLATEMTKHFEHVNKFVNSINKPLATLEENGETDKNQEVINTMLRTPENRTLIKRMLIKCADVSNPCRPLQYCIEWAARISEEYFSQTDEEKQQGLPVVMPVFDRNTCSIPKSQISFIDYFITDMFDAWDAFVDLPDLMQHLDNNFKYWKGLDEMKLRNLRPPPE
Chain of High affinity cGMP-specific 3',5'-cyclic phosphodiesterase 9A (O76083 whole entry): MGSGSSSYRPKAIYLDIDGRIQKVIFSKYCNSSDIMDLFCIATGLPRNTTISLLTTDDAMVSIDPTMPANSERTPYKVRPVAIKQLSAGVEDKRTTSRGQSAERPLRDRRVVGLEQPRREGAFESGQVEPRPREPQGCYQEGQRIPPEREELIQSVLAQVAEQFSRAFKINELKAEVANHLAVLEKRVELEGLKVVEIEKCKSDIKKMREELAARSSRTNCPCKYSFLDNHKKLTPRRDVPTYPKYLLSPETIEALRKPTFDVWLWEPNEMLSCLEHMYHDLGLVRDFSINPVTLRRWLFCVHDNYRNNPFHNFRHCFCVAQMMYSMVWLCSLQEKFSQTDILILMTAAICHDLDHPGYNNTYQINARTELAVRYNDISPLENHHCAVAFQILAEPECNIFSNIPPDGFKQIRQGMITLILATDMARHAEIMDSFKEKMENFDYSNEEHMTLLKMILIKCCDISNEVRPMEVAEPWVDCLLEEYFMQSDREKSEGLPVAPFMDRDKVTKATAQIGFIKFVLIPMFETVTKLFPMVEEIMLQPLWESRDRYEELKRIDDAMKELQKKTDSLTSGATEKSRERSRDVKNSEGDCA
Chain of 3',5'-cyclic-AMP phosphodiesterase 4D (Q08499 whole entry): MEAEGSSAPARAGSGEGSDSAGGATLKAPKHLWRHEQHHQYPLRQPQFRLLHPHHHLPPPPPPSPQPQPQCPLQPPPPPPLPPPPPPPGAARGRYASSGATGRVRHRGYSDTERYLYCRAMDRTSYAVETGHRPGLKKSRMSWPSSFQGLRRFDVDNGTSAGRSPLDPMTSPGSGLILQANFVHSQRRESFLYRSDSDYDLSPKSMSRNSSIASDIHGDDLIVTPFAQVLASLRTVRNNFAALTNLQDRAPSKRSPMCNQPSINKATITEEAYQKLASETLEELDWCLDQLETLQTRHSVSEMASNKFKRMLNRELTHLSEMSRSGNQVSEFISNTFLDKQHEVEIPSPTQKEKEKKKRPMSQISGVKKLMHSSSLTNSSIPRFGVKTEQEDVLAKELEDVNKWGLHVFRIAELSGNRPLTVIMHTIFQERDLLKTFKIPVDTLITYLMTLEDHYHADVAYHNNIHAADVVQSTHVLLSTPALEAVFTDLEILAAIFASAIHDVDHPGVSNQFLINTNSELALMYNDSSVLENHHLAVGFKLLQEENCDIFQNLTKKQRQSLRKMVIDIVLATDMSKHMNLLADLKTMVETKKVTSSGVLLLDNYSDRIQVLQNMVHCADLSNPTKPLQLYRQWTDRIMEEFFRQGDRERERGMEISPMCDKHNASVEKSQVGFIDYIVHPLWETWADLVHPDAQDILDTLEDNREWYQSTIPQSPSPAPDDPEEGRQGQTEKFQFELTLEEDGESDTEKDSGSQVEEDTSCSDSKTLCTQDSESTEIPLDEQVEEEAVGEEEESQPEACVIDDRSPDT
Chain of cGMP-inhibited 3',5'-cyclic phosphodiesterase 3A (Q14432 whole entry): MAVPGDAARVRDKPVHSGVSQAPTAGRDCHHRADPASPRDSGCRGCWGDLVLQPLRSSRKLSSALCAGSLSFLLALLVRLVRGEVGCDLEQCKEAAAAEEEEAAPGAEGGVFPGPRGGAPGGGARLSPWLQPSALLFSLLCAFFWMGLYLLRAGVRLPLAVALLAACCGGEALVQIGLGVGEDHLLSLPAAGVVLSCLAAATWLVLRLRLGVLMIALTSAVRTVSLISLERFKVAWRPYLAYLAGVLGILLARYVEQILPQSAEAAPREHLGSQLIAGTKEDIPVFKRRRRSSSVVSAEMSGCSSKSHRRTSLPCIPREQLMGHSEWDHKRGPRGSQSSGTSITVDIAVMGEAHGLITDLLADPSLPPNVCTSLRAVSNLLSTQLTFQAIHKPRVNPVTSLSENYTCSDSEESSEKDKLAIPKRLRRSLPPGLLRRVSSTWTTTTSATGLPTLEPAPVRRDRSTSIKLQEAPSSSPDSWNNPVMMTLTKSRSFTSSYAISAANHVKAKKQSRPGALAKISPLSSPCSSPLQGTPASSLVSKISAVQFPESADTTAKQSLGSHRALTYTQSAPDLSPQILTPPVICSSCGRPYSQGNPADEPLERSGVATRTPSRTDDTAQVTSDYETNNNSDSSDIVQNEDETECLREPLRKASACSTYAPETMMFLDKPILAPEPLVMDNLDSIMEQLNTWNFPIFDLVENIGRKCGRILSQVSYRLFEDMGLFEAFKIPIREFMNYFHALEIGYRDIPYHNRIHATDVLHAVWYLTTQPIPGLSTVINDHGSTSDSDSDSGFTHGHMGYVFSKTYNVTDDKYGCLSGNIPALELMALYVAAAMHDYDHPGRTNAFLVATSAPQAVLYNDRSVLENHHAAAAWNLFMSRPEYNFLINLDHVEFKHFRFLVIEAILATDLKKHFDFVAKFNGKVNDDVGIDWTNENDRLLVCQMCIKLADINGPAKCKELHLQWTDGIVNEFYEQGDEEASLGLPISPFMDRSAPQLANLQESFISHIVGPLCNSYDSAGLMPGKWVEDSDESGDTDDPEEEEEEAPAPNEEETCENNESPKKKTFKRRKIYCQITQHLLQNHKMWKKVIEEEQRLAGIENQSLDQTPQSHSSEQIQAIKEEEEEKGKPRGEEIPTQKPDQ

Work on CC(C)c1n[nH]c2c(=O)[nH]c(Cc3ccccc3OCCN3CCOCC3)nc12 yielded a pIC50 [1] of 7.39, a pIC50 [2] of 5.41 and a pIC50 [3] of 5.31. The pIC50 [4] was 5.95, the Activity [5] was -32% and the Activity [6] was -40%. The Activity [7] was -55%, the Activity [8] was -35% and the Activity [9] was -35%. For the same compound, the Activity [10] was -59%, the Activity [11] was -4.3% and the Activity [12] was -6.4%. For the same compound, the Activity [13] was -11%, the pIC50 [14] was < 5.00 and the pIC50 [15] was < 5.00. For the same compound, the “Cp(f)” value ([16]; mouse, in vivo, po, 250 mg/kg, 3 h) was 243 nM, the “Cp(f)” value ([17]; mouse, in vivo, po, 500 mg/kg, 3 h) was 361 nM and the pIC50 [18] was 5.09. The pIC50 [19] was < 5.00, the pIC50 [20] was < 5.00 and the pIC50 [21] was < 5.00. The pIC50 [22] was < 5.00, the pIC50 [23] was < 5.00 and the pIC50 [24] was 5.28. For the same compound, the pIC50 [25] was < 5.00, the pIC50 [26] was < 5.00 and the pIC50 [27] was < 5.00. The pIC50 [28] was < 5.00, the pIC50 [29] was < 5.00 and the pIC50 [30] was < 5.00. For the same compound, the “Cp(f)” value ([31]; mouse, in vivo, po, 100 mg/kg, 3 h) was 140 nM.

With CC(C)c1n[nH]c2c(=O)[nH]c(C[C@@H]3CCCC[C@H]3Nc3ncc(C(=O)O)c(C(F)(F)F)n3)nc12 the pIC50 [1] was 8.15, the pIC50 [2] was < 5.00 and the pIC50 [3] was < 5.00. For the same compound, the pIC50 [4] was < 5.00, the Vd [32] was 0.12 L/kg and the bioavailability [33] was 100%. The pIC50 [14] was < 6.00, the pIC50 [15] was < 6.00 and the pIC50 ([16]; Mus musculus, Plasma) was < 6.00. The pIC50 ([17]; Mus musculus, Plasma) was < 6.00, the pIC50 [18] was < 6.00 and the pIC50 [19] was < 6.00. The pIC50 [20] was < 6.00, the pIC50 [21] was < 6.00 and the pIC50 [22] was < 6.00. For the same compound, the pIC50 [23] was < 6.00, the pIC50 [24] was 6.43 and the pIC50 [25] was < 6.00. For the same compound, the pIC50 [26] was < 6.00, the pIC50 [27] was < 6.00 and the pIC50 [28] was < 6.00. For the same compound, the pIC50 [29] was < 6.00, the pIC50 [30] was < 6.00 and the pIC50 ([31]; Mus musculus, Plasma) was < 6.00. The clearance [34] was 19.8 mL/min/kg.

CC(C)c1nn(C)c2c(=O)[nH]c(Cc3ccccc3OCCN3CCOCC3)nc12 showed a pIC50 [1] of 6.28, a pIC50 [2] of 6.10 and a pIC50 [3] of 5.11. The pIC50 [4] was 6.01.

For CC(C)c1n[nH]c2c(=O)[nH]c(C[C@@H]3CCCC[C@H]3NC(=O)CN3CCCC3)nc12, the pIC50 [1] was 7.44, the pIC50 [2] was < 5.00 and the pIC50 [3] was < 5.00. For the same compound, the pIC50 [4] was < 5.00.

For CC(C)c1[nH]nc2c(=O)[nH]c(C[C@@H]3CCCC[C@H]3NC(=O)NCCCN3CCOCC3)nc12, the pIC50 [1] was 7.34, the pIC50 [2] was < 5.00 and the pIC50 [3] was < 5.00. For the same compound, the pIC50 [4] was 5.38 and the Papp [35] was 0.7 ×10⁻⁶ cm/s.

Compound CC(C)c1n[nH]c2c(=O)[nH]c(C[C@@H]3CCCC[C@H]3Nc3ncccn3)nc12 has a pIC50 [1] of 7.46, a pIC50 [2] of 5.11 and a pIC50 [3] of 5.01. The pIC50 [4] was 5.36, the pIC50 [14] was 5.08 and the pIC50 [15] was < 5.00. The pIC50 [18] was < 5.00, the pIC50 [19] was < 5.00 and the pIC50 [20] was < 5.00. The pIC50 [21] was < 5.00, the pIC50 [22] was < 5.00 and the pIC50 [23] was < 5.00. The pIC50 [24] was 5.82, the pIC50 [25] was < 5.00 and the pIC50 [26] was < 5.00. For the same compound, the pIC50 [27] was < 5.00, the pIC50 [28] was < 5.00 and the pIC50 [29] was < 5.00. The pIC50 [30] was < 5.00.

In the case of CC(C)c1[nH]nc2c(=O)[nH]c(C[C@@H]3CCCC[C@H]3NC(=O)CC3CCOCC3)nc12, the pIC50 [1] was 7.72, the pIC50 [2] was < 5.00 and the pIC50 [3] was < 5.00. The pIC50 [4] was 5.51.

For CC(C)c1n[nH]c2c(=O)[nH]c(Cc3ccccc3OC(F)(F)F)nc12, the pIC50 [1] was 7.25, the pIC50 [2] was 5.60 and the pIC50 [3] was 5.58. It also gave a pIC50 [4] of 6.28 and a Papp [35] of 10.8 ×10⁻⁶ cm/s.

For CC(C)c1n[nH]c2c(=O)[nH]c(Cc3ccccc3OCc3ccccc3)nc12, the pIC50 [1] was 7.09, the pIC50 [2] was 5.84 and the pIC50 [3] was 5.58. It also gave a pIC50 [4] of 5.87.

CC(C)c1n[nH]c2c(=O)[nH]c(Cc3cccc(Cl)c3)nc12 showed a pIC50 [2] of 7.27, a pIC50 [3] of 7.42 and a pIC50 [4] of 8.40.

In the case of CC(C)c1n[nH]c2c(=O)[nH]c(C[C@@H]3CCCC[C@H]3OCCN3CCOCC3)nc12, the pIC50 [1] was 7.06, the pIC50 [2] was < 5.00 and the pIC50 [3] was < 5.00. For the same compound, the pIC50 [4] was 5.69.

For Cc1ccc(N[C@@H]2CCCC[C@H]2Cc2nc3c(C(C)C)[nH]nc3c(=O)[nH]2)nn1, the pIC50 [1] was 7.64, the pIC50 [2] was < 5.00 and the pIC50 [3] was < 5.00. For the same compound, the pIC50 [4] was 5.12.
